Measured values reported in US4400534A, “Analgesic and anti-inflammatory agents” (Sankyo Company, Limited, priority 1980, dated 1983).

Assays:
[1] = target: T1, microsome prostaglandin-biosynthesis enzyme (Bos taurus, UniProt O62664); assay: Inhibition of PG-biosynthesis enzyme activity, bovine seminal vesicle microsome test; format: biochemical; conditions: for IC50: bovine seminal vesicle microsome 1mg/ml, 14C-arachidonic acid 10 μM, pH 7.6, 30° C., 10 minutes, prostaglandin E2 measured, read-out: Inhibition of PG-biosynthesis enzyme activity, Bovine seminal vesicle microsome I50
T1 construct: microsome prostaglandin-biosynthesis enzyme (1mg/ml) fractionated from bovine seminal vesicles; from tissue; host or cells: bovine seminal vesicles (microsomes)
T1 sequence (O62664 25-600): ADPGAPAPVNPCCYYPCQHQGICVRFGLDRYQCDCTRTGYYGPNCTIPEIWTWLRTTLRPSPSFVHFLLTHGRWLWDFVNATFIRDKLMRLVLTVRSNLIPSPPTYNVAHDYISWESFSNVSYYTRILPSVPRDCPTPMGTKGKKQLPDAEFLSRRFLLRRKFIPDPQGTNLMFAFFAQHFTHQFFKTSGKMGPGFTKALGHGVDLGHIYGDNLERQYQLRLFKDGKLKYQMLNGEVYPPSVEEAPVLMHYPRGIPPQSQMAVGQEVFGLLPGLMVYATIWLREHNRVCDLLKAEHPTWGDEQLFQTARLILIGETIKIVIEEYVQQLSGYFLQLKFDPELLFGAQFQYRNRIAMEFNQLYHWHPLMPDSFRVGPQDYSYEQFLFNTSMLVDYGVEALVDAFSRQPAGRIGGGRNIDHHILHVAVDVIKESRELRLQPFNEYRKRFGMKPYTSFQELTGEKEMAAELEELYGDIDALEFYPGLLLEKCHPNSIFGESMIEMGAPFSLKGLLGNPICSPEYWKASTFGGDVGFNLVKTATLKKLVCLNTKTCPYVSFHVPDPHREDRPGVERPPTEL
Protocol: Microsome tests were conducted according to the methods of E Takeguchi, E Kohno, C J Sih: Biochemistry 10, 2372 (1971), "Preparation of bovine seminal vesicle" and of R J Flower, H S Cheung, D W Cushman: Prostaglandins 4, 325 (1973), "Pharmacological action system."
The compounds under test were added to a system comprising microsome prostaglandin-biosynthesis enzyme (1mg/ml) fractionated from bovine seminal vesicles, glutathione (2 mM), epinephrine (1 mM) and trisaminomethane-hydrochloric acid buffer solution pH 7.6 (0.1 M). The mixture was left to stand at 30° C. for 5 minutes and commercially available ^14 C-arachidonic acid (10 μM, 50-60 nCi) was added. The resultant solution was maintained at 30° C. for 10 minutes and reaction then stopped by addition of 0.1 N hydrochloric acid. After extraction of the reaction mixture, the extract was separated by thin layer chromatography on silica gel to give the prostaglandin which was produced. The main product, prostaglandin E2, was measured using a liquid scintilation counter in accordance with the method of L Levine et al: Journal of Biological Chemistry (246, 6782 (1971). The inhibitory activities were assayed by the radioactivity ratio of the sample to a blank.

[2] = test system: prostaglandin-biosynthesis in 3T6 cells; assay: Inhibition of prostaglandin-biosynthesis in cultured cells (3T6 cells from mouse fibroblasts); format: cell-based; conditions: for IC50: Mus musculus, Fibroblast, 3T6 cells, 2 hours contact, then arachidonic acid 5 μg/ml, 1 hour, prostaglandin E2 by radioimmunoassay, read-out: Inhibition of PG-biosynthesis enzyme activity, Culture cells I50
Protocol: 3T6 cells from mouse fibroblasts were used as the cultured cells.
About six hundred thousand 3T6 cells were cultured in a plastics Petri dish (35 mm inner diameter) at 37° C. for 48 hours using a minimum-requirement medium, Darbecco (Trade Mark). After culturing, the cells were separated, washed, and then contacted with the same medium but containing the compound under test. After contacting for 2 hours, the medium was separated off and the cells washed. The medium containing 5 μg/ml of arachidonic acid and the test compound were added. Culturing was allowed to continue for 1 hour, and then the concentration of the prostaglandin E2 in the medium was assayed by radioimmunoassay.

Row | IC50 [1] [µM] | inhibition of prostaglandin-biosynthesis enzyme activity (in words) [1] | Structure (SMILES) | IC50 [2] [nM] | activity compared to indomethacin (in words) ([2]; cultured cells test, called in vivo)
1 | 72 |  | C[C@H](C(=O)O)c1ccc(CC2CCCC2O)cc1 (stereo partly drawn) [I, (2S)-2-[4-(2-hydroxycyclopentan-1-ylmethyl)phenyl]propionic acid] |  | 
2 | 9 | more active than the compound (I) | C[C@H](C(=O)O)c1ccc(C[C@H]2CCC[C@@H]2O)cc1 [II, (2S)-2-{4-[(1R,2S)-2-hydroxycyclopentan-1-ylmethyl]phenyl}propionic acid] | 250 | better activity in the compound (II) compared to indomethacin
3 | 13 |  | C[C@H](C(=O)O)c1ccc(CC2CCCC2O)cc1 (stereo partly shown) [II + III] |  | 
4 |  |  | COc1ccc2c(c1)c(CC(=O)O)c(C)n2C(=O)c1ccc(Cl)cc1 [IM, indomethacin, reference compound] | 340 | 
